From patent publication US20230288338A1, “LUMINESCENT SUBSTRATE COMPOUND” (NATIONAL INSTITUTE OF ADVANCED INDUSTRIAL SCIENCE AND …, priority 2020, published 2023)

Legend:
Format in all cases: biochemical
[1] = biological target: T1, bovine serum albumin (BSA) (Bos taurus, UniProt P02769); assay: Luminescence intensity measurement with bovine serum albumin; details: total luminescence over 60 seconds, normalized against native coelenterazine in HSA set to 1.0; 10 µM substrate solution, 10 mM PB buffer pH 7.4
T1 construct: bovine serum-derived lyophilized powder, Sigma-Aldrich; purchased Sigma-Aldrich; host or cells: purified from bovine serum
T1 sequence (P02769 25-607): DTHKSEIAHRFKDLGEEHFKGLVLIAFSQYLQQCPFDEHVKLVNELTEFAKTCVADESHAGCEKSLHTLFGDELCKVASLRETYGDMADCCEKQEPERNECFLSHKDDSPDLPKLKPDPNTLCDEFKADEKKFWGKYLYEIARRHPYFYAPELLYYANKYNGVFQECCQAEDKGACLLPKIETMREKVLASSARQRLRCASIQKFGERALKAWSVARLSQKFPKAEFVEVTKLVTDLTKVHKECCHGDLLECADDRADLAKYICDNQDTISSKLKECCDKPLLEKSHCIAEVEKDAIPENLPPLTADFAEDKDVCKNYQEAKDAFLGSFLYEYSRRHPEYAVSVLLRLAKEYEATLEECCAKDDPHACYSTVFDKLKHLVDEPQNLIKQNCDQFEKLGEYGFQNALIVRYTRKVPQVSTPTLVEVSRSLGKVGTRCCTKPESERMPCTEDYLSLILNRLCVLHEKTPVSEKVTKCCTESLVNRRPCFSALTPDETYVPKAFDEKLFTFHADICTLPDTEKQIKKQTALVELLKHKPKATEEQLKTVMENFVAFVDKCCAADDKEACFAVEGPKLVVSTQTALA
Protocol: (§1) Human serum albumin (human serum-derived lyophilized powder, Fatty acid free, Globulin free, Sigma-Aldrich), other human protein species or bovine serum albumin (bovine serum-derived lyophilized powder, Sigma-Aldrich) was dissolved in PB Buffer (10 mM, pH 7.4) and used directly for luminescence measurement. As luminescent substrates, NCTZ, DeepBlueC™, MCLA™, control compounds 1 to 3, HuLumino12 and HuLumino22 were used. Each luminescent substrate was dissolved in methanol to give a 2 mM solution. This solution was diluted to 10 µM with 10 mM PB buffer (pH 7.4) for use as a substrate solution. To 90 µL of this solution, 10 µL of 10 mM PB buffer (pH 7.4) containing human serum albumin (HSA) or bovine serum albumin (BSA) was added to initiate a luminescent reaction. The luminescence intensity was measured with a Promega GloMax® 20/20 for 60 seconds, and the results were expressed as total luminescence (Total Luminescence/min) and compared (FIG. 1). […]

[2] = biological target: T2, human serum albumin (HSA) (Homo sapiens, UniProt P02768); assay: Luminescence intensity measurement with human serum albumin; details: for HSA Luminescence intensity: total luminescence over 60 seconds, normalized against native coelenterazine in HSA set to 1.0, 10 µM substrate solution, 10 mM PB buffer pH 7.4
T2 construct: human serum-derived lyophilized powder, Fatty acid free, Globulin free, Sigma-Aldrich; purchased Sigma-Aldrich; host or cells: purified from human serum
T2 sequence (P02768 25-609): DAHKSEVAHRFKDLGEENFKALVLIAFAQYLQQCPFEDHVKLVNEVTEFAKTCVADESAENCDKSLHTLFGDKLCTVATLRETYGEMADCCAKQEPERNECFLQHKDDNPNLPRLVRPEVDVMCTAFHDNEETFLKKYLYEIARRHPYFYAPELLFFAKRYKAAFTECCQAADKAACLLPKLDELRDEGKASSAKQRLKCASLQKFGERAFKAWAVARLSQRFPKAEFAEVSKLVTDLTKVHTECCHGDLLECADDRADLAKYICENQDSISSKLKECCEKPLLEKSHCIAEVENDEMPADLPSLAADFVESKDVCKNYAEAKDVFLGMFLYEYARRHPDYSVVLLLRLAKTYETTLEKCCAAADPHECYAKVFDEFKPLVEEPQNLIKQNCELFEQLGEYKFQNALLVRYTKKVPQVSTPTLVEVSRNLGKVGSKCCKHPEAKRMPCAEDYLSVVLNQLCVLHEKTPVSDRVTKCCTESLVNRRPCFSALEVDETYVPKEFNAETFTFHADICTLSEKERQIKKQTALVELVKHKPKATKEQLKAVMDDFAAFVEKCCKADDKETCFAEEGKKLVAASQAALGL
Protocol: as §1

[3] = system: various human-derived proteins; assay: Luminescence intensity upon reaction with various human-derived proteins or bovine serum albumin (FIG. 2)
Protocol: FIG. 2 is a graph showing the luminescence intensity of HuLumino12 (a compound according to an example of the present invention) upon reaction with various human-derived proteins or bovine serum albumin.
as §1

[4] = biological target: T2, human serum albumin (HSA); assay: HSA concentration-dependent luminescence intensity, detection limit (FIG. 5)
Excerpt: FIG. 5 is a graph showing the luminescence intensity of HuLumino12 (a compound according to an example of the present invention), which is dependent on the concentration of human serum albumin (HSA).

[5] = biological target: T2, human serum albumin (HSA); assay: Signal to noise ratio of luminescence in the presence of HSA (FIG. 3); details: luminescent reaction with HSA; for S/N ratio: FIG. 3
Excerpt: FIG. 3 is a graph showing the luminescence property (signal to noise ratio, S/N ratio) of compounds according to examples of the present invention and comparative examples in the presence of human serum albumin (HSA).

[6] = biological target: T2, human serum albumin (HSA); assay: Luminescence duration in the presence of HSA (FIG. 4); details: luminescent reaction with HSA
Excerpt: FIG. 4 is a graph showing the luminescence property (luminescence duration) of HuLumino12 (a compound according to an example of the present invention) in the presence of human serum albumin (HSA).

[7] = biological target: T3, HSA (Homo sapiens, UniProt P02768); assay: Michaelis-Menten constant of luminescent substrate/HSA reaction
T3 construct: human serum-derived lyophilized powder, Fatty acid free, Globulin free, Sigma-Aldrich; purchased Sigma-Aldrich; host or cells: purified from human serum
T3 sequence (P02768 25-609): as above

[8] = biological target: T2, human serum albumin (HSA); assay: Luminescence spectrum measurement in the presence of HSA (FIG. 6)
Protocol: FIG. 6 is a graph showing the luminescence wavelength (luminescence spectrum measurement result) of HuLumino12 (a compound according to an example of the present invention) in the presence of human serum albumin (HSA).
The luminescence spectrum was measured with a spectrometer. The peak luminescence wavelength was obtained by being normalized against the peak luminescence intensity which was set to 1.0.

SMILES | BSA Luminescence intensity [1] | HSA Luminescence intensity [2] | other results
COCCCOc1ccc(-c2cn3c(=O)c(Cc4ccccc4)nc-3c(Cc3ccccc3)[nH]2)cc1 [BBlue2.3, reference compound] | 34.3 | 51.5 | –
O=c1c(Cc2ccccc2)nc2c[nH]c(-c3ccc(O)cc3)cn1-2 [Control compound 2, reference compound] | 11.2 | 13.7 | –
COc1ccc(-c2cn3c(=O)c(Cc4ccccc4)nc-3c[nH]2)cc1 [Control compound 3, reference compound] | 34.4 | 554 | –
O=c1c(Cc2ccccc2)nc2c(Cc3ccccc3)[nH]c(-c3ccccc3)cn1-2 [DeepBlueC™, reference compound] | 7.6 | 22.1 | –
COCCCOc1ccc(-c2cn3c(=O)c(Cc4ccccc4)nc-3c[nH]2)cc1 [HuLumino12, 2-benzyl-6-(4-(3-methoxypropoxy)phenyl)imidazo[1,2-a]pyrazin-3(7H)-one] | 11.9 | 912 | specificity of luminescent reaction among various human protein species [3]: specific luminescent reaction when recognized by human serum albumin (HSA); detection limit of HSA detection [4]: 7.4 µg/mL; S/N ratio [5]: 37; luminescence duration [6]: 3 h; Michaelis-Menten constant [7]: 4.2 µM; luminescence intensity higher than NCTZ/HSA ([2]; with HSA, relative to NCTZ/HSA): 912 fold; peak luminescence wavelength [8]: 427 nm
COCCCOc1ccc(-c2cn3c(=O)c(C)nc-3c[nH]2)cc1 [HuLumino22, 6-(4-(3-methoxypropoxy)phenyl)-2-methylimidazo[1,2-a]pyrazin-3(7H)-one] | 3.1 | 14.2 | –
COc1ccc(/C=C/c2cn3c(=O)c(Cc4ccccc4)nc-3c[nH]2)cc1 [HuLumino30, (E)-2-benzyl-6-(4-methoxystyryl)imidazo[1,2-a]pyrazin-3(7H)-one] | 19.2 | 154 | –
O=c1c(Cc2ccccc2)nc2c[nH]c(/C=C/c3ccc(-c4ccccc4)cc3)cn1-2 [HuLumino44, (E)-6-(2-([1,1′-biphenyl]-4-yl)vinyl)-2-benzylimidazo[1,2-a]pyrazin-3(7H)-one] | 5.2 | 206 | S/N ratio relative to that of HuLumino12 [5]: approximately 4 fold; S/N ratio [5]: 150
O=c1c(Cc2ccccc2)nc2c[nH]c(/C=C/c3ccccc3)cn1-2 [HuLumino45, (E)-2-benzyl-6-styrylimidazo[1,2-a]pyrazin-3(7H)-one] | 9.8 | 61.3 | –
COc1ccc(-c2cn3c(=O)c(C)nc-3c[nH]2)cc1 [MCLA™, reference compound] | 1.8 | 14.1 | –
O=c1c(Cc2ccc(O)cc2)nc2c(Cc3ccccc3)[nH]c(-c3ccc(O)cc3)cn1-2 [NCTZ, reference compound] | 3.9 | 1.0 | Michaelis-Menten constant [7]: 25.3 µM
